Like-named read-outs stand apart in the source and are kept apart here.
How the values were obtained:
[1] = Pharmacokinetic test in mice; format: in vivo, ICR mice
Description: 5.1 Experimental animals: Male ICR mice, 20-25 g, 6 mice/compound. Purchased from Chengdu Ddossy Experimental Animals Co., Ltd.
5.2 Experimental design: On the day of the experiment, 42 ICR mice were randomly grouped according to their body weights. The animals were fasted with water available for 12-14 h one day before administration and fed 4 h after administration.
Before and after administration, 0.06 mL of blood was taken from the orbit under isoflurane anesthesia and placed in an EDTAK2 centrifuge tube for centrifugation at 5000 rpm at 4-C for 10 min, followed by plasma collection. The blood collection time points for the intravenous group and intragastric group were both 0 m, 5 mi, 15 mi, 30 mi, 1 h, 2 h, 4 h, 6 h, 8 h, and 24 h. Before analysis and detection, all the samples were stored at −80° C., and the samples were subjected to quantitative analysis using LC-MS/MS.

PDE4B2 = target: T1, PDE4B2 (Homo sapiens, UniProt Q07343); test: Effect of compounds on PDE4B2 activity (fluorescence polarization kit); format: biochemical
T1 construct: purchased BPS Bioscience 60343
Description: The effect of compounds on PDE4B2 activity was detected by a fluorescence polarization kit (BPS Bioscience, Catalog #60343). According to the instructions of the kit, FAM-Cyclic-3′,5′-AMP at a final concentration of […], 1 ng/well of PDE4B2 (PDE buffer was added to the negative control well), and a compound diluted in a gradient manner (PDE buffer containing 10% DMSO was added to the positive control well) were added to each well, fully mixed, and then reacted at room temperature for 1 h. The Binding Agent was diluted with the Binding Agent Diluent (cAMP) at a ratio of 1:100 for later use, the Binding Agent dilution was taken and added to the test plate at 50 μl/well and incubated at room temperature with slow shaking for 20 minutes. After the incubation was complete, Envision was used for FP detection, with Excitation at 480 nm and Emission at 535 nm. FP was usually represented by mP value.
[formula] • I∥ (S535): fluorescence intensity in parallel direction • I⊥ (P535): fluorescence intensity in perpendicular direction • G: G factor=1
(§1) [formula] • mP(sample): mP of the test compound in a reaction well • mP(negative control): mP in the negative control well • mP(positive control): mP in the positive control well
(§2) According to the calculated inhibition rate at each concentration, the IC50 value of each compound was calculated by GraphPad Prism 8 software.

[2] = Pharmacokinetic test in beagle dogs; format: in vivo
Description: 6.1 Experimental animals: male beagle dogs, about 8-11 kg, 6 beagle dogs/compound, purchased from Beijing Marshall Biotechnology Co., Ltd.
6.2 Experimental method: On the day of the experiment, 18 beagle dogs were randomly grouped according to their body weights. The animals were fasted with water available for 12-14 h one day before administration and fed 4 h after administration. Administration was carried out according to Table 8.
Before and after administration, 1 ml of blood was taken from the jugular vein or limb vein and placed in an EDTAK2 centrifuge tube. Centrifugation was carried out at 5000 rpm at 4° C. for 10 min, and plasma was collected. The blood collection time points for the intravenous group and intragastric group were both 0 min, 5 min, 15 min, 30 min, 1 h, 2 h, 4 h, 6 h, 8 h, 10 h, 12 h, 24 h, 48 h, and 72 h. Before analysis and detection, all the samples were stored at −80° C., and the samples were subjected to quantitative analysis using LC-MS/MS.

PDE4D2 = target: T2, PDE4D2 (Homo sapiens, UniProt Q08499); test: Effect of compounds on PDE4D2 activity (fluorescence polarization kit); format: biochemical; settings: class symbols
T2 construct: purchased BPS Bioscience 60345
Description: The effect of compounds on PDE4D2 activity was detected by a fluorescence polarization kit (BPS Bioscience, Catalog #60345). During the reaction, 12.5 μL of 0.272 ng/well of an enzyme (final concentration: 0.068 ng/well) and 12.5 μL of the compound diluted in a gradient manner (DMSO concentration: 4%) were first pre-incubated at room temperature for 15 minutes, the same volume of the enzyme at the same concentration and 12.5 μL of PDE buffer containing 4% DMSO were added to the positive control well, and 25 μL of PDE buffer containing 2% DMSO was added to the negative control well. After completion, 25 μL of […] FAM-Cyclic-3′,5′-AMP (final concentration: […]) was added to each well, fully mixed, and then incubated at room temperature with slow shaking for 30 minutes. The Binding Agent was diluted with the Binding Agent Diluent (cAMP) at a ratio of 1:100 for later use, 100 μl/well of the Binding Agent dilution was taken and added to all wells of the test plate and incubated at room temperature with slow shaking for 1 hour.
After the incubation was complete, BMG LRBTECH microplate reader was used for FP detection, with Excitation at 485 nm and Emission at 520 nm. FP was usually represented by mP value.
[formula] • I∥ (S520): fluorescence intensity in parallel direction • I⊥ (P520): fluorescence intensity in perpendicular direction • G: G factor=1
as §1, §2

PDE4B1 = target: T3, PDE4B1 (Homo sapiens, UniProt Q07343); test: Effect of compounds on PDE4B1 activity (IMAP fluorescence polarization kit); format: biochemical; settings: class symbols
T3 construct: purchased BPS 60041
Description: The IMAP Reaction Buffer containing 0.1% BSA (5×) in the kit was diluted into a 1-fold reaction buffer containing 1 mM DTT. 0.12 nM PDE4B1 (BPS, Cat #60041) was added to the 1-fold reaction buffer to form a 2-fold enzyme solution. 10 μL of the 2-fold enzyme solution was added to wells of a 384-well reaction plate. For the negative control well, 10 μL of the 1-fold reaction buffer was used instead of the enzyme solution. Centrifugation at 1000 rpm for 1 minute and incubation at room temperature for 15 minutes were carried out. 0.2 uM FAM-labeled cAMP (FAM-cAMP, Molecular Device, Cat #R7506) was added to the 1-fold reaction buffer to form a 2-fold substrate solution. 10 μL of the 2-fold substrate solution was added to each well of the 384-well reaction plate. Centrifugation at 1000 rpm for 1 minute was carried out. A reaction was carried out at room temperature for 20 minutes. IMAP Progressive Binding Buffer A (5×), IMAP Progressive Binding Buffer B (5×), and IMAP Progressive Binding Reagent (provided by IMAP FP IPP Explorer Kit) were prepared into a reaction stop solution according to the instructions for use. 60 μL of an […] reaction stop solution was added to each well of the 384-well reaction plate to stop the reaction, and the reaction product was centrifuged at 1000 rpm for 1 minute. Incubation at room temperature in the dark for 60 minutes was carried out. The mP values (Ex480/Em535 (s), Em535 (p)) were read by a microplate reader (Envision).
FP was usually represented by mP value. mP value for FP measurement=1000*(S−G*P)/(S+G*P) • S: fluorescence intensity in parallel direction • P: fluorescence intensity in perpendicular direction • G: G factor=1
as §1
According to the calculated inhibition rate at each concentration, the IC50 value of each compound was calculated by XLFit excel add-in version 5.4.0.8 software.
Y=Bottom+(Top−Bottom)/(1+(IC50/X)^HillSlope) Fitting formula: […]

[3] = Inhibition of LPS-induced TNF-α release from human peripheral blood mononuclear cells in vitro; format: cell-based; settings: PBMC, hPBMC, 100 ng/mL LPS, 4 h; for IC50: class symbols, read-out: Re IC50 (nM) (relative IC50), TNF-α induced by LPS; for Emax: read-out: Max inhibition (%)
Description: Normal human peripheral blood which was anticoagulated (citric acid anticoagulation) was collected, and hPBMCs were prepared by Ficoll-Paque PLUS (Cytiva, Cat #17144002, density 1.077 g/mL). The concentration of hPBMC cells was adjusted to 0.25×10^6 cells/mL with RPMI1640 medium and inoculated into a 96-well plate in an amount of 50000 cells per well. Subsequently, different concentrations of drugs were added for pre-incubation for 1 h (the DMSO final concentration was 0.1%, and the positive and negative control wells had the same volume of RPMI1640 containing 0.1% DMSO). After the pre-incubation was complete, 100 ng/mL LPS (SIGMA, L2630) was added to the compound and positive control wells, and the negative control well had the same volume of RPMI1640 containing 0.1% DMSO. Incubation was carried out for 4 h in an incubator at 37° C. and 5% CO2. The cell supernatant was collected, and the content of TNF-α in the supernatant sample was detected by human TNF-α Elisa quantitative test kit (Sino Biological, Cat #KIT10602). The IC50 value was calculated using GraphPad Prism software.

[4] = male, ICR, mouse, iv, plasma, i.v. (5 mg/kg)
[5] = male, ICR, mouse, po, plasma, i.g. (10 mg/kg)
[6] = class symbols, read-out: PDE4B2 IC50
[7] = male, dog, iv, plasma, i.v. (1 mg/kg)
[8] = male, dog, po, plasma, i.g. (5 mg/kg)

T3 sequence (Q07343 whole entry): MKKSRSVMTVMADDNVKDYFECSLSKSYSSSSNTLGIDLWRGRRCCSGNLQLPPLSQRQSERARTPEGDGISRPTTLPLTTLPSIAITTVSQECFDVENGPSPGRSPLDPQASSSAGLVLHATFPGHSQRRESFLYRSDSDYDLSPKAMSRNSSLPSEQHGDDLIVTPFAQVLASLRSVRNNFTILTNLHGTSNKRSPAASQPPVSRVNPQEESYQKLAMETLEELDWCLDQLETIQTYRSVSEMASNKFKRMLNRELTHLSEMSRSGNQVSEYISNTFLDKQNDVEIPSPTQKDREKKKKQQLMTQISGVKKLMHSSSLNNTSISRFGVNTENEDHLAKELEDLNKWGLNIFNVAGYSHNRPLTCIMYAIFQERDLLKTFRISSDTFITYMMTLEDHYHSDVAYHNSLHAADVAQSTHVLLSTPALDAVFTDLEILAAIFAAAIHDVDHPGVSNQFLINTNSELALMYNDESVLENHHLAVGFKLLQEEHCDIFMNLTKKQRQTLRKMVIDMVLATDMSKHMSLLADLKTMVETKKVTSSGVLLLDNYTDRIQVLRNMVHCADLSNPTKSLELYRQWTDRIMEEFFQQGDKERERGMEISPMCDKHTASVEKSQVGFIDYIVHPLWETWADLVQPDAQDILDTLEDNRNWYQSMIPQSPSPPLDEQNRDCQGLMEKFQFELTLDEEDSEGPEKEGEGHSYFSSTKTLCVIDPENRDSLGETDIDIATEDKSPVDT
T1 sequence (Q07343 1-564 isoform Q07343-2): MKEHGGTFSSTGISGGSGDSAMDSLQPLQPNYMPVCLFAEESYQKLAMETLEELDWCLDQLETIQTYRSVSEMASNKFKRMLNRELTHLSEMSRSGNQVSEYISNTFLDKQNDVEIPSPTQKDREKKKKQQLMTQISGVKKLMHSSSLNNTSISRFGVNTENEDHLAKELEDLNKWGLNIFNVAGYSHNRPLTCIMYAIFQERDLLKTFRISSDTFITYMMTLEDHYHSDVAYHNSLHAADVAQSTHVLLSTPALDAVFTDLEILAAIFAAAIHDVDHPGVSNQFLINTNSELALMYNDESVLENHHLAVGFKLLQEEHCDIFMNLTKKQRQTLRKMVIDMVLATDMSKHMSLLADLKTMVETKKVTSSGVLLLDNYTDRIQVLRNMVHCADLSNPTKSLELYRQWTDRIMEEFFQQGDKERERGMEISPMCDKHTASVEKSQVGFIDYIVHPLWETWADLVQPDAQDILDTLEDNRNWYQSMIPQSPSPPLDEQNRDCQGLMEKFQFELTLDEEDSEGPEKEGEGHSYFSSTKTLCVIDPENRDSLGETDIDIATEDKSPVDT
T2 sequence (Q08499 303-809): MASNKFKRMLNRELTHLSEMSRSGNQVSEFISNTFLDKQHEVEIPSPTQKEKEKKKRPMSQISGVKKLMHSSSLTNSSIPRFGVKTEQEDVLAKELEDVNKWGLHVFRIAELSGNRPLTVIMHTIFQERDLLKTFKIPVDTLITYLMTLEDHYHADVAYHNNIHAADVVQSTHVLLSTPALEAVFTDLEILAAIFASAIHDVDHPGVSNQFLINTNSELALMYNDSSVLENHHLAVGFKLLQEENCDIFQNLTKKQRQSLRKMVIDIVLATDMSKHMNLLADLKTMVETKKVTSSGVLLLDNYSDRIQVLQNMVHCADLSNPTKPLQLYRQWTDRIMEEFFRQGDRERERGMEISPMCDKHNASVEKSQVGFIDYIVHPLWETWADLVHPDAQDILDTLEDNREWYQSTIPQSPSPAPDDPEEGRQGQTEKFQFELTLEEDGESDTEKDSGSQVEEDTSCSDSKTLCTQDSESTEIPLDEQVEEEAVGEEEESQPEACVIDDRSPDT

Structure (SMILES)	IC50 (PDE4B2; [6]) [µM]	IC50 (PDE4D2) [µM]	IC50 (PDE4B1) [µM]	IC50 [3] [nM]	Emax [3] [%]	also measured
[O-][S@+]1CCc2nc(N3CCC=C(c4ccc(Cl)cc4)CC3)nc(NC3(CO)CCC3)c21 [Compound 5]	< 0.01	< 0.01				F ([1]; i.g. (10 mg/kg)): 91.9 ± 7.5%; AUC(0-t) [1, 4]: 7.4 ± 1.11 µg·h/mL; clearance [1, 4]: 0.343 ± 0.0516 L/h/kg; half-life [1, 4]: 2.72 ± 0.23 h; Vd ([1]; male, ICR, mouse, iv, plasma, i.v. (5 mg/kg), read-out: Vdss): 1.31 ± 0.12 L/kg; AUC(0-t) [1, 5]: 27.2 ± 2.23 µg·h/mL; half-life [1, 5]: 3.42 ± 0.16 h; IC50 (PDE4B2; values in text, read-out: IC50 against PDE4B2): 0.0081 µM; F ([2]; i.g. (5 mg/kg)): ≥98%; AUC(0-t) [2, 7]: 1.2 ± 0.21 µg·h/mL; clearance [2, 7]: 0.828 ± 0.138 L/h/kg; half-life [2, 7]: 3.91 ± 0.037 h; Vd ([2]; male, dog, iv, plasma, i.v. (1 mg/kg), read-out: Vdss): 4.16 ± 0.76 L/kg; AUC(0-t) [2, 8]: 5.02 ± 1.7 µg·h/mL; half-life [2, 8]: 6.32 ± 2.1 h
[O-][S+]1CCc2nc(N3CC4C(C3)C4c3ccc(Cl)cc3)nc(NC3(CO)CCC3)c21 (stereo not shown) [Compound 20]	0.01 to 0.05	< 0.01	< 0.01			
[O-][S@+]1CCc2nc(N3C[C@H]4CC[C@@H](C3)[C@@H]4c3ccc(Cl)cc3)nc(NC3(CO)CCC3)c21 [Compound 22]	0.01 to 0.05	0.01 to 0.05	0.01 to 0.05			
[O-][S@+]1CCc2nc(N3C[C@H]4CN(c5ncc(Cl)cn5)C[C@H]4C3)nc(NC3(CO)CCC3)c21 [Compound 25]	0.01 to 0.05	< 0.01	< 0.01			
[O-][S@+]1CCc2nc(N3CC=C(c4ccc5c(c4)CC5)CC3)nc(NC3(CO)CCC3)c21 [Compound 26]		< 0.01	< 0.01			
[O-][S@+]1CCc2nc(N3CCC=C(c4ccc5c(c4)CC5)CC3)nc(NC3(CO)CCC3)c21 [Compound 27]		< 0.01	< 0.01			
[O-][S+]1CCc2nc(N3CCC4=C(COc5cc(Cl)ccc54)C3)nc(NC3(CO)CCC3)c21 (stereo not shown) [Compound 29]		< 0.01	< 0.01			
[O-][S+]1CCc2nc(N3CC=C(c4c(F)cc(Cl)cc4F)CC3)nc(NC3(CO)CCC3)c21 (stereo not shown) [Compound 35]		< 0.01	< 0.01			
CC1=C(c2ccc(Cl)cc2)CCN(c2nc3c(c(NC4(CO)CCC4)n2)[S+]([O-])CC3)C1 (stereo not shown) [Compound 36]			< 0.01			
[O-][S@+]1CCc2nc(N3Cc4cc5c(cc4C3)CCC5)nc(NC3(CO)CCC3)c21 [Compound 69]	< 0.01	0.01 to 0.05		50 to 100	74.4	
C#Cc1ccc(C2=CCN(c3nc4c(c(NC5(CO)CCC5)n3)[S@+]([O-])CC4)CC2)nc1 [Compound 70]	< 0.01	< 0.01		< 10	70.5	
CC#Cc1cnc(C2=CCN(c3nc4c(c(NC5(CO)CCC5)n3)[S@+]([O-])CC4)CC2)nc1 [Compound 76]	< 0.01	< 0.01		< 10	73.8	
[O-][S@+]1CCc2nc(N3CC=C(c4ncc5c(n4)COB5O)CC3)nc(NC3(CO)CCC3)c21 [Compound 79]	< 0.01	0.01 to 0.05		< 10	61.5	
[O-][S@+]1CCc2nc(N3CC=C(c4ccc(Cl)c5c4CC5)CC3)nc(NC3(CO)CCC3)c21 [Compound 83]	< 0.01	< 0.01		< 10	77.7	

Source: patent publication US20250326765A1, “PDE4B INHIBITOR AND USE THEREOF” (XIZANG HAISCO PHARMACEUTICAL CO., LTD., priority 2022, published 2025)
